From patent US20150344426A1, “COMPOUNDS AND THERAPEUTIC USES THEREOF” (ALZHEIMER'S INSTITUTE OF AMERICA, INC., priority 2012, published 2015)
Values joined by “and” are separate entries in the source; they are usually repeats but may differ in a detail not shown here. Equal values may be shown once. Read-outs that look alike come from different tables or passages of the source.

Experiments:
[1] = test system: HT1080 human fibrosarcoma cancer cells; test: Anti-tumor activity in HT1080 human fibrosarcoma xenograft with twice daily dosing; type: in vivo; conditions: for tumor regression: by Day 8
Description: One million HT1080 cells were implanted subcutaneously in the right flank of female nude mice (Crl:NU-Fox1^nu). When the median tumor volume (MTV) was approximately 209 mm^3, mice were randomized into four cohorts of ten animals. […] All cohorts were dosed twice daily for 7 days. The mice were observed daily for mortality and signs of toxicity. Tumor volumes and body weights were determined from Days 1 to 22. The results are depicted in FIG. 4.

[2] = Experiment 1: hepatic portal vein samples of rats after oral Example Compound 35; type: in vivo, female Sprague-Dawley rats; conditions: 20 mg/kg, portal vein; for [Par. Cmp. A]: listed as Par. Cmp. A
Description: It is believed that Example Compound 35 metabolizes in vivo into Parent Compound A (i.e., it is believed that Example Compound 35 is a prodrug of Parent Compound A). The objective of this study was to determine the concentration of Example Compound 35 and Parent Compound A in hepatic portal vein samples of female Sprague-Dawley rats following oral administration of only Example Compound 35, and to quantify the extent of transport into hepatic portal circulation, if any, of Example Compound 35. A second objective was to determine the relative bioavailability of Parent Compound A in the portal vein following oral administration of Example Compound 35.
Experiment 1. Three female Sprague Dawley rats (200-215 g, Harlan Laboratories, Indianapolis, Ind.) with cannulae implanted surgically in the portal vein for blood sampling were used in this study. Example Compound 35, formulated in 50 mM Glycine pH 3.0 with 0.5% HPMC and 0.05% Tween-80, was administered by oral gavage (PO) at a dose of 20 mg/kg in a volume of 2 mL/kg. This dose is the molar equivalent of a 13.5 mg/kg dose of Parent Compound A. Portal blood samples were collected through the portal vein cannula from each animal at 0.25, 0.5, 1, 2, 4, and 8 hours following administration of compound. Samples were split into two fractions and one was supplemented with citrate buffer (final concentration 100 mM, pH 3.0) to stabilize Example Compound 35 and stop conversion of Example Compound 35 to Parent Compound A ex vivo during analysis. Samples were then processed to generate plasma and analyzed for Example Compound 35 by LC-MS/MS. Plasma derived from the second aliquot of blood was analyzed for Parent Compound A.
Pharmacokinetic parameters estimated for Parent Compound A included the maximum observed drug concentration (Cmax), time of maximum observed drug concentration (Tmax), apparent terminal half-life (t1/2), area under the concentration-time curve from time zero to 8 hours postdose (AUC(0-8)), and area under the concentration-time curve extrapolated to infinity (AUC(0-inf)). The bioavailability (% F) of Parent Compound A in portal vein samples relative to IV administration was also estimated.
Plasma samples were analyzed for Example Compound 35 or Parent Compound A concentration using a LC-MS/MS method. All sample runs met standard acceptance criteria for discovery purposes, and were based on a standard curve containing at least 7 points. At least half of quality control samples at each of the three concentrations tested, and two thirds of the entire quality control sample pool, were within 15% of their theoretical value. The r^2 value for each standard curve was ≧0.99. The quantitation range for the Example Compound 35 and Parent Compound A assays was 1 to 100 ng/mL and 5 to 2,500 ng/mL, respectively, using a 0.05 mL sample volume.
The data were entered into the PK software package WinNonlin® version 5.1.1. A complete data check was conducted to verify the accuracy of data entry.
Pharmacokinetic parameters were estimated on median plasma concentrations using extravascular input (PO). Nominal collection times after administration of compound were used for PK analyses. The use of a non-compartmental model provided an adequate fit of the data. Pharmacokinetic parameters estimated for Parent Compound A included the maximum observed drug concentration (Cmax), time of maximum observed drug concentration (Tmax), apparent terminal half-life (t1/2), apparent volume of distribution (Vz obs), apparent clearance (C1 obs), area under the concentration-time curve from time zero to 8 hours postdose of Example Compound 35 […], and area under the concentration-time curve extrapolated to infinity (AUC(0-inf)). Example Compound 35 was detected in only one 0.25 hour hepatic portal vein sample at 1.29 ng/mL. Any Example Compound 35 present in all of the other samples was below the quantitation limit of 1 ng/mL and pharmacokinetic parameters were not determined for those samples. […]

For `O=C(NCc1cccnc1)Nc1ccc(OCCc2ccccc2-c2ccccc2)cc1` [Parent Compound A, 1-{4-[2-(Biphenyl-2-yl)ethoxy]phenyl}-3-(pyridin-3-ylmethyl)urea], the “tumor growth inhibition relative to vehicle” value ([1]; 3 mg/kg orally twice daily for seven days, Day 21) was 60%, the MTV increase ([1]; 3 mg/kg orally twice daily for seven days, end of dosing, Day 9) was 221% and the MTV increase ([1]; 3 mg/kg orally twice daily for seven days, end of the study, Day 21) was 622%. The “tumor growth inhibition relative to vehicle” value ([1]; 4 mg/kg orally twice daily for seven days, Day 21) was 81%, the tumor regression ([1]; 4 mg/kg orally twice daily for seven days) was 13% and the “MTV as % of the initial value” ([1]; 4 mg/kg orally twice daily for seven days, end of dosing, Day 9) was 87%. For the same compound, the MTV increase ([1]; 4 mg/kg orally twice daily for seven days, end of the study, Day 21) was 296%, the “tumor growth inhibition relative to vehicle” value ([1]; 5 mg/kg orally twice daily for seven days, Day 21) was 85% and the tumor regression ([1]; 5 mg/kg orally twice daily for seven days) was 22%. The “MTV as % of the initial value” ([1]; 5 mg/kg orally twice daily for seven days, end of dosing, Day 9) was 78%, the MTV increase ([1]; 5 mg/kg orally twice daily for seven days, end of the study, Day 21) was 235% and the “tumor growth inhibition relative to vehicle” value ([1]; 7 mg/kg orally twice daily for seven days, Day 21) was 89%. The tumor regression ([1]; 7 mg/kg orally twice daily for seven days) was 78%, the “MTV as % of the initial value” ([1]; 7 mg/kg orally twice daily for seven days, end of dosing, Day 9) was 22% and the MTV increase ([1]; 7 mg/kg orally twice daily for seven days, end of the study, Day 21) was 175%. For the same compound, the “tumor growth inhibition relative to vehicle” value ([1]; 9 mg/kg orally twice daily for seven days, Day 21) was 95%, the tumor regression ([1]; 9 mg/kg orally twice daily for seven days) was 61% and the “MTV as % of the initial value” ([1]; 9 mg/kg orally twice daily for seven days, end of dosing, Day 9) was 39%. For the same compound, the MTV increase ([1]; 9 mg/kg orally twice daily for seven days, end of the study, Day 21) was 85%, the “animals with tumor volumes exceeding 1,500 mm^3 euthanized” value ([1]; Parent Compound A study, 3 mg/kg, cohort of ten) was “three” and the deaths ([1]; Parent Compound A study, 4 mg/kg, cohort of ten, two found dead, one euthanized for tumor volume) was “three”. The “animals with no detectable tumor by the end of the study” value (from here on “animals with no detectable tumor”) ([1]; Parent Compound A study, 5 mg/kg, cohort of ten) was “One”, the “animals with no detectable tumor” value ([1]; Parent Compound A study, 7 mg/kg, cohort of ten) was “One” and the “animals with no detectable tumor” value ([1]; Parent Compound A study, 9 mg/kg, cohort of ten) was “One”. The “anti-tumor activity in the HT1080 xenograft model (summary statement)” value ([1]; administered orally, twice daily, all doses tested) was “significant anti-tumor activity”, the “maximal reduction in median body weight” value ([1]; over the course of the study, all doses tested, orally twice daily) was < 10 % of the initial weight and the Tolerability ([1]; xenograft mice, all doses tested, orally twice daily) was “well tolerated”. For the same compound, the concentration at 0.25 h ([2]; female, Sprague-Dawley, rat, plasma (hepatic portal vein), po, 0.25 hr after oral Example Compound 35 20 mg/kg, read-out: Median [Par. Cmp. A]) was 961 ng/mL, the concentration at 0.5 h ([2]; female, Sprague-Dawley, rat, plasma (hepatic portal vein), po, 0.5 hr after oral Example Compound 35 20 mg/kg, read-out: Median [Par. Cmp. A]) was 2820 ng/mL and the concentration at 1 h ([2]; female, Sprague-Dawley, rat, plasma (hepatic portal vein), po, 1 hr after oral Example Compound 35 20 mg/kg, read-out: Median [Par. Cmp. A]) was 2460 ng/mL. The concentration at 2 h ([2]; female, Sprague-Dawley, rat, plasma (hepatic portal vein), po, 2 hr after oral Example Compound 35 20 mg/kg, individual rats, read-out: [Par. Cmp. A]) was 1800 ng/mL, the concentration at 2 h ([2]; female, Sprague-Dawley, rat, plasma (hepatic portal vein), po, 2 hr after oral Example Compound 35 20 mg/kg, read-out: Median [Par. Cmp. A]) was 1930 ng/mL and the concentration at 4 h ([2]; female, Sprague-Dawley, rat, plasma (hepatic portal vein), po, 4 hr after oral Example Compound 35 20 mg/kg, read-out: Median [Par. Cmp. A]) was 1000 ng/mL. The concentration at 8 h ([2]; female, Sprague-Dawley, rat, plasma (hepatic portal vein), po, 8 hr after oral Example Compound 35 20 mg/kg, read-out: Median [Par. Cmp. A]) was 41 ng/mL, the “[Par. Cmp. A]” value ([2]; 0.25 hr after oral Example Compound 35 20 mg/kg, individual rats) was 417.4 ng/mL and 2,306.7 ng/mL and 961.4 ng/mL and the “[Par. Cmp. A]” value ([2]; 0.5 hr after oral Example Compound 35 20 mg/kg, individual rats) was 2,819.4 ng/mL and 2,818.9 ng/mL and 577.7 ng/mL. The “[Par. Cmp. A]” value ([2]; 1 hr after oral Example Compound 35 20 mg/kg, individual rats) was 1,064.4 ng/mL and 2,455.1 ng/mL and 3,237.2 ng/mL, the “[Par. Cmp. A]” value ([2]; 2 hr after oral Example Compound 35 20 mg/kg, individual rats) was 2,398.5 ng/mL and 1,930.2 ng/mL and the “[Par. Cmp. A]” value ([2]; 4 hr after oral Example Compound 35 20 mg/kg, individual rats) was 1,004.3 ng/mL and 2,254.2 ng/mL and 177.4 ng/mL. The “[Par. Cmp. A]” value ([2]; 8 hr after oral Example Compound 35 20 mg/kg, individual rats) was 41.0 ng/mL and 378.5 ng/mL and 15.9 ng/mL.
